Several values for one entry are separate records, joined by “and”; a condition that tells them apart may be missing. Equal values may be shown once.
What was measured:
Type in all cases: cell-based, Human
[1] = tested on: HEL cells; assay: Anti-proliferative test, CellTiter-Lumi luminescence method, HEL cells; conditions: 72 hours; for average proliferation rate: HEL cells, relative to DMSO control
Experimental: (§1) HEL (Human erythroleukemia cell line) and drug-resistant HEL cells were cultured in RPMI medium (Gibco) containing 20% heat-inactivated fetal bovine serum (Gibco) and 1% penicillin/streptomycin (Gibco).
(§2) To test the anti-proliferative effect of the inhibitors, the above cell lines were cultured at a 3000 cells/200 μL per well, added with increasing concentrations of the inhibitors (concentration gradient: 0, 1, 2.5, 5, 10, 20 μM), then supplemented with DMSO to an equal volume. 4 parallel replicate groups and 3 blank wells (culture medium wells without cells) were set. After 72 hours, the cell proliferation was detected by a multi-plate reader using CellTiter-Lumi™ luminescence method (Beyotime), and the IC50 was calculated by Graph Pad prism.
(§3) The calculation formula of cell proliferation rate: cell proliferation rate=(Luminescence value of drug-treated group—average Luminescence value of blank wells)/(Luminescence value of DMSO control group—average Luminescence value of blank wells)×100%.

[2] = tested on: HEL^PE (HEL-persistent, ruxolitinib-resistant) cells; assay: Anti-proliferative test, CellTiter-Lumi luminescence method, HEL-persistent model; conditions: for IC50: Homo sapiens, HEL^PE cells, 72 hours
Experimental: as §1
(§4) HEL^PE model, namely HEL-persistent model, was constructed by treating HEL blast cells with a high concentration of ruxolitinib that exceeded the IC50 concentration of blast cells by more than 100 times, wherein the concentration of ruxolitinib used herein was 2.0 μM. The culture medium of the cells was changed every two days, the cells that cannot tolerate the high concentration of ruxolitinib died quickly, while the proliferated cells were DTP (drug-tolerant-persisters), and this cell subset was difficult to be killed by antitumor drugs. Stable drug-resistant cells were obtained after 4-6 weeks. Another drug resistance model is HEL^RE, namely the HEL-resistant model, which was constructed by treating blast cells with ruxolitinib from a starting concentration lower than the IC50 concentration of blast cells, slowly increasing to a high concentration to keep the cells from being killed. The starting concentration used herein was 0.1 μM, the drug was added as soon as the cells proliferated, the dosing gradient was 1.25-fold increments, and the final concentration was 2.0 μM. Stable drug-resistant cells were obtained after 4-6 weeks.
as §2, with “4 parallel replicate groups and 3 blank wells (culture medium wells without cells) were set.” left out
The calculation formula of cell proliferation rate: cell proliferation rate=(Luminescence value of drug-treated group—average Luminescence value of blank wells)/(Luminescence value of DMSO control group—average Luminescence value of blank wells)×100%. […]

[3] = tested on: HEL^RE (HEL-resistant, ruxolitinib-resistant) cells; assay: Anti-proliferative test, CellTiter-Lumi luminescence method, HEL-resistant model; conditions: for IC50: HEL^RE cells
Experimental: as §1, §4, §2, §3
The method to evaluate whether the model is successfully constructed is to compare the IC50 of drug-resistant cells and naive cells, the obtained ratio was the drug-resistance index, and if the ratio was greater than 3, then the model was successfully constructed.

[4] = tested on: HEL^PE (HEL-persistent, ruxolitinib-resistant) cells; assay: Apoptosis detection by flow cytometry after Annexin V-PI staining, HEL-persistent model; conditions: 24 hours
From the text: (§5) Three parallel replicate groups were set up, and the apoptosis of cells was detected by flow cytometry after Annexin V-PI staining.
(§6) The calculation formula of the apoptosis rate: apoptosis rate=ratio of early apoptotic cells (Annexin V+/PI−)+ratio of late apoptotic cells and necrotic cells (Annexin V+/PI+).

[5] = tested on: HEL^RE (HEL-resistant, ruxolitinib-resistant) cells; assay: Apoptosis detection by flow cytometry after Annexin V-PI staining, HEL-resistant model; conditions: 24 hours
From the text: as §5, §6

[6] = tested on: HEL cells; assay: Apoptosis detection by flow cytometry after Annexin V-PI staining, HEL cells; conditions: 24 hours
From the text: as §5, §6

Structure (SMILES) | average proliferation rate ([1]; 1 μM) | average proliferation rate ([1]; 2.5 μM) | average proliferation rate ([1]; 5 μM) | average proliferation rate ([1]; 20 μM) | IC50 [2] | IC50 ([3]; Homo sapiens, 72 h) | average apoptosis rate ([4]; 2.5 μM) | average apoptosis rate ([4]; 5 μM) | average apoptosis rate ([4]; 10 μM) | average apoptosis rate ([5]; 2.5 μM) | average apoptosis rate ([5]; 5 μM) | average apoptosis rate ([5]; 10 μM) | average apoptosis rate ([6]; 2.5 μM) | average apoptosis rate ([6]; 5 μM) | average apoptosis rate ([6]; 10 μM) | average proliferation rate ([1]; 10 μM) | IC50 ([1]; Homo sapiens, HEL naive cells, mean (95% confidence interval)) | drug-resistance index ([2]; ratio of IC50 of HEL^PE cells to IC50 of naive HEL cells) | IC50 ([3]; 72 hours) | drug-resistance index ([3]; ratio of IC50 of HEL^RE cells to IC50 of naive HEL cells)
CNC(=O)c1cc(Oc2ccc(NC(=O)Nc3ccc(Cl)c(C(F)(F)F)c3)cc2)ccn1 [sorafenib] | 80.3% | 72.1% | 40.0% | 0.828% | 2.8 µM | 3.56 µM | 2.16% | 11.1% | 18.0% | 1.22% | 5.58% | 18.6% | 5.82% | 10.9% | 16.1% | – | – | – | – | –
N#CC[C@H](C1CCCC1)n1cc(-c2ncnc3[nH]ccc23)cn1 [ruxolitinib, Ruxolitinib] | 41.4% and 50.5% | 40.6% and 48.4% | 42.8% and 50.2% | 22.9% and 28.5% | 25.5 µM | – | 0.920% | 1.11% | 0.740% | 1.16% and 3.75% | 1.35% and 3.70% | 1.05% and 4.34% | 4.65% and 2.05% | 5.07% and 2.14% | 4.59% and 2.16% | 40.8% and 48.4% | 0.05 µM | 510 | 24.9 µM | 498
CNC(=O)c1cc(Oc2ccc(NC(=O)Nc3ccc(Cl)c(C(F)(F)F)c3)c(F)c2)ccn1 [regorafenib] | 84.7% | 57.7% | 32.1% | 1.15% | – | 0.514 µM | – | – | – | 9.50% | 12.9% | 14.7% | 4.31% | 7.76% | 10.6% | 17.7% | – | – | – | –
